Legend:
[1] = Solubilization test of imidazole compounds; format: physicochemical; conditions: 0.20 g imidazole compound dissolved in 2.0 g carboxylic acid compound; ion-exchange water added until solution became clouded; larger = better solubilization
Method: Solubilization Test of Imidazole Compounds
After 0.20 g of 2-pheny-(3,4-dichlorophenyl)imidazole was dissolved in 2.0 g of the carboxylic acid compound for use in the invention, there was measured an amount of water required until the solution became clouded when ion-exchange water was added. The larger amount of water is judged to be more excellent in imidazole compound-solubilization performance of the carboxylic acid compound.
It is recognized that a chemical structure wherein an alkoxy group (R^1—O—) and a carboxymethyl group (—CH2COOH) or a carboxyethyl group (—C2H4COOH) is combined via an alkylene ether chain (—CH2CH(R^2)—O—) enhances the imidazole compound-solubilization performance.

[2] = reported; cited from earlier work

Structure (SMILES) | Amount of water added [1] [mL] | metabolism in the living body [2] | toxic effect [2]
CCOCC(=O)O [Compound A, 2-Ethoxyacetic acid] | 3.3 |  | 
CCCCOCC(=O)O [2-(n-Butoxy)acetic acid] | 1.0 |  | 
CCCOCC(C)OCC(C)OCC(=O)O (centres unmarked) [Compound F, 2-[2-(2-propoxy-1-methylethoxy)-1-methylethoxy]acetic acid] | 3.0 |  | 
COCC(=O)O [methoxyacetic acid] |  | difficult to metabolize in the living body | causing testicular atrophy or teratogenicity
CCCCOCC(C)OCC(C)OCC(C)OCC(=O)O (centres unmarked) [Compound G, 2-{2-[2-(2-butoxy-1-methylethoxy)-1-methylethoxy]-1-methylethoxy}acetic acid] | 2.0 |  | 
CCCOCC(=O)O [2-(n-Propoxy)acetic acid] | 2.8 |  | 
CCOCCOCCOCC(=O)O [Compound C, 2-[2-(2-ethoxyethoxy)ethoxy]acetic acid] | 3.6 |  | 

From patent US20080318070A1, “Water-Soluble Preflux and Usage of the Same” (SHIKOKU CHEMICALS CORPORATION, priority 2005, published 2008)
